Data taken from patent USRE39921E1, “Chemical compounds” (SmithKline Beecham Corporation, priority 1999, dated 2007).
Where a name gives a salt, the structure may show the parent alone.

Experiments:
[1] = target: T1, recombinant human NK1 receptors (Homo sapiens, UniProt P25103); experiment: NK1-receptor binding affinity: displacement of [3H]-substance P from CHO cell membranes; conditions: average of at least two determinations, [3H]-substance P displacement, read-out: pki (negative logarithm of the inhibition constant Ki of displacer ligands) (converted)
T1 construct: expressed in transfected cells; host or cells: Chinese Hamster Ovary (CHO) cells, membrane preparation
T1 sequence (P25103 whole entry): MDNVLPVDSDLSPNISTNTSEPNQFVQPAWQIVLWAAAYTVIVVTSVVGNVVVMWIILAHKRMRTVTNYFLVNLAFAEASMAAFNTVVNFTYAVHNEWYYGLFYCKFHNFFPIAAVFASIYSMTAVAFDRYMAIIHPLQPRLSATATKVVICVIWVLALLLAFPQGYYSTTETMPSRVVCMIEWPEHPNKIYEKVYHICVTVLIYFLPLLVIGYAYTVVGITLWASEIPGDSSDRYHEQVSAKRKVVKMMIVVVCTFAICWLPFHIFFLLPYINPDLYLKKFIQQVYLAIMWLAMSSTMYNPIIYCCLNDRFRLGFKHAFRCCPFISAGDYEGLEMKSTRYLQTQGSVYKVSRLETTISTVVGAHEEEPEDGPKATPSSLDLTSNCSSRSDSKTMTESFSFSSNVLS
Procedure: Thus ligand binding was performed in 0.4 ml of 50 mM HEPES, pH 7.4, containing 3 mM MnCl2, 0.02% BSA, 0.5 nM [^3H]Substance P (30+56 Ci/mmol, Amersham), a final membrane concentration of 25 μg of protein/ml, and the test compounds. The incubation proceeded at room temperature for 40 min.
The affinity of the compound of the invention for NK1 receptor was determined using the NK1-receptor binding affinity method measuring in vitro by the compounds' ability to displace [3H]—substance P (SP) from recombinant human NK1 receptors expressed in Chinese Hamster Ovary (CHO) cell membranes. The affinity values are expressed as negative logarithm of the inhibition constant (Ki) of displacer ligands (pKi).

nk1 receptor = target: T2, nk1 receptor (Meriones unguiculatus, UniProt Q5DUB1); experiment: gerbil foot tapping model (hind foot tapping induced by icv NK1 agonist); type: in vivo; conditions: oral administration, one hour before icv NK1 agonist; dose inhibiting tapping by 50%
T2 construct: from tissue; host or cells: living gerbil, central NK1 receptors (agonist infused icv)
T2 sequence (Q5DUB1 whole entry, the tested form may be a part): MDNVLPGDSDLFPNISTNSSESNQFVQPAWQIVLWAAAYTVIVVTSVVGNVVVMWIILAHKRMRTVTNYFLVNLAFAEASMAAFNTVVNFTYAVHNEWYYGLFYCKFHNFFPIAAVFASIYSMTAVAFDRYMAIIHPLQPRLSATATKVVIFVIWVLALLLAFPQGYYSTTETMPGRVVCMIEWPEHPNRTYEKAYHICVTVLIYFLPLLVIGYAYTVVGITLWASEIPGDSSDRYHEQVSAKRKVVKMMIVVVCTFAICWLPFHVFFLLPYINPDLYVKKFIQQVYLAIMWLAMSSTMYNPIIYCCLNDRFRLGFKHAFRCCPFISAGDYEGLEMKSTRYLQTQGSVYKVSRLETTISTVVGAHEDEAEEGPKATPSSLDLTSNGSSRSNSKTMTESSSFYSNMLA
Procedure: The action of the compounds of the invention at the NK1 receptor may be determined by using conventional tests. Thus the ability to bind at the NK1 receptor was determined using the gerbil foot tapping model as described by Rupniak & Williams, Eur. J. of Pharmacol., 1994.
The ability of the compounds of the invention at the nk1 receptor may be determined using the gerbil foot tapping model as described by Rupniak & Williams, Eur. Jour. of Pharmacol., 1994.
The compound was administered orally and one hour later an NK1 agonist (e.g. delta-Aminovaleryl^6[Pro^9,Me-Leu^10]-substance P (7-11)) (3 pmol in 5 μL, icv) was infused directly in the cerebral ventricules of the animals. The duration of hind foot tapping induced by the NK1 agonist (e.g. delta-Aminovaleryl^6[Pro^9,Me-Leu^10]-substance P (7-11)) was recorded continuously for 3 min using a stopclock. […] Alternatively the compounds may be administered subcutaneously or intraperitoneally.

| Structure (SMILES) | melting point [°C] | Ki [1] [nM] | ED50(mg/kg po) (nk1 receptor) [mg/kg] |
| --- | --- | --- | --- |
| Cc1cc(F)ccc1C1CNCCN1C(=O)N1CC=CCC1c1cc(C(F)(F)F)cc(C(F)(F)F)c1 (single isomer, unassigned) [Example 28, hydrochloride] | – | 0.49 | – |
| Cc1cc(F)ccc1[C@H]1CNCCN1C(=O)N1CCCCC1c1cc(C(F)(F)F)cc(C(F)(F)F)c1 (single isomer, unassigned) [Example 29, hydrochloride] | – | 1.35 | – |
| C=CCC(c1cc(C(F)(F)F)cc(C(F)(F)F)c1)N(C)C(=O)N1CCNCC1c1ccc(F)cc1C (single isomer, unassigned) [Example 30, 2-(4-Fluoro-2-methyl-phenyl)-piperazine-1-carboxylic acid [1-(3,5-bis-trifluoromethyl-phenyl)-but-3-enyl]-methyl-amide hydrochloride] | – | 1.66 | – |
| Cc1cc(F)ccc1C1CNCCN1C(=O)N(C)C(c1cc(C(F)(F)F)cc(C(F)(F)F)c1)C(C)C (single isomer, unassigned) [Example 32, 2-(4-Fluoro-2-methyl-phenyl)-piperazine-1-carboxylic acid [1-(3,5-bis-trifluoromethyl-phenyl)-2-methyl-propyl]-methyl-amide hydrochloride] | – | 1.02 | – |
| Cc1cc(F)ccc1C1CNCCN1C(=O)N(C)C(c1cc(C(F)(F)F)cc(C(F)(F)F)c1)C1CC1 (single isomer, unassigned) [Example 34, 2(4-Fluoro-2-methyl-phenyl)-piperazine-1-carboxylic acid [(3,5-bis-trifluoromethyl-phenyl)-cyclopropyl-methyl]-methyl-amide hydrochloride] | – | 0.794 | – |
| CC(=O)O.Cc1cc(F)ccc1[C@H]1CNCCN1C(=O)N(C)[C@@H](C)c1cc(C(F)(F)F)cc(C(F)(F)F)c1 [Example 19, 2-(S)-(4-Fluoro-2-methyl-phenyl)-piperazine-1-carboxylic acid [1-(S)-(3,5-bis-trifluoromethyl-phenyl)-ethyl]-methyl-amide acetate] | – | – | 0.04 |
| Cc1cc(F)ccc1[C@H]1CN(C(=O)CN)CCN1C(=O)N(C)Cc1cc(C(F)(F)F)cc(C(F)(F)F)c1.Cl [Example 20, 4-(2-Amino-acetyl)-2-(S)-(4-fluoro-2-methyl-phenyl)-piperazine-1-carboxylic acid (3,5-bis-trifluoromethyl-benzyl)-methyl-amide hydrochloride] | – | 0.347 | 0.065 |
| Cc1cc(F)ccc1[C@H]1CNCCN1C(=O)N(C)C(C)(C)c1cc(C(F)(F)F)cc(C(F)(F)F)c1.Cl [Example 21, 2-(S)-(4-Fluoro-2-methyl-phenyl)-piperazine-1-carboxylic acid [1-(3,5-bis-trifluoromethyl-phenyl)-1-methyl-ethyl]-methyl-amide hydrochloride] | – | 1.12 | 0.4 |
| Cc1cc(F)ccc1[C@H]1CNCCN1C(=O)N(C)C1(c2cc(C(F)(F)F)cc(C(F)(F)F)c2)CC1 [Example 25, 2-(S)-(4-Fluoro-2-methyl-phenyl)-piperazine-1-carboxylic acid [1-3,5-bis-trifluoromethyl-phenyl)-cyclopropyl]-methyl-amide hydrochloride] | – | 0.479 | – |
| CS(=O)(=O)O.Cc1cc(F)ccc1[C@H]1CNCCN1C(=O)N(C)[C@H](C)c1cc(C(F)(F)F)cc(C(F)(F)F)c1 [Example 36, 2(S)-(4-Fluoro-2-methyl-phenyl)-piperazine-1-carboxylic acid [1-(R)-(3,5-bis-trifluoromethyl-phenyl)-ethyl]-methyl-amide methansulphonate] | – | – | 0.05 |

Other lines, results leading:

| melting point [°C] | Ki [1] [nM] | ED50(mg/kg po) (nk1 receptor) [mg/kg] | Structure (SMILES) |
| --- | --- | --- | --- |
| 77 to 80 | – | – | CC(C)c1cccc(C2CNCCN2C(=O)N(C)Cc2cc(C(F)(F)F)cc(C(F)(F)F)c2)c1.Cl (stereo not drawn) |
| > 220 | 1.07 | – | Cc1cc(F)ccc1C1CNCCN1C(=O)N(C)Cc1cc(C(F)(F)F)cc(C(F)(F)F)c1.Cl (stereo not drawn) [Example 1, 2-(4-Fluoro-2-methyl-phenyl)-piperazine-1carboxylic acid (3,5-bistrifluoromethyl-benzyl)-methyl-amide hydrochloride] |
| 70 to 72 | 4.37 | – | Cc1cc(C2CNCCN2C(=O)N(C)Cc2cc(C(F)(F)F)cc(C(F)(F)F)c2)ccc1F.Cl (stereo not drawn) [Example 4, 2(4-Fluoro-3-methyl-phenyl)-piperazine-1-carboxylic acid (3,5-bis-trifluoromethyl-benzyl)-methyl-amide hydrochloride] |
| 220 to 230 | 2.14 | – | CN(Cc1cc(C(F)(F)F)cc(C(F)(F)F)c1)C(=O)N1CCNCC1c1ccc(F)cc1F.Cl (stereo not drawn) [Example 5, 2-(2,4-Difluoro-phenyl)-piperazine-1-carboxylic acid (3,5-bis-trifluoromethyl-benzyl)-methyl-amide hydrochloride] |
| – | 0.427 | – | Cc1cc(F)ccc1[C@H]1CNCCN1C(=O)N(C)Cc1cc(C(F)(F)F)cc(C(F)(F)F)c1 [Example 8, (−)-2-(S)-(4-Fluoro-2-methyl-phenyl)-piperazine-1-carboxylic acid (3,5-bis-trifluoromethyl-benzyl)-methyl-amide hydrochloride] |
| – | 2 | – | CN(Cc1cc(C(F)(F)F)cc(C(F)(F)F)c1)C(=O)N1CCNCC1c1ccc(F)cc1 (stereo not drawn) [Example 12, hydrochloride] |
| > 200 | – | – | CN(Cc1ccc(C(F)(F)F)c(C(F)(F)F)c1)C(=O)N1CCNCC1c1ccc(F)cc1.Cl (stereo not drawn) [Example 12] |
| – | 2 | – | CN(Cc1cc(C(F)(F)F)cc(C(F)(F)F)c1)C(=O)N1CCNCC1c1ccc(Cl)cc1Cl (stereo not drawn) [Example 14, 2-(2,4-Dichloro-phenyl)-piperazine-1-carboxylic acid (3,5-bistrifluoro methyl-benzyl)-methyl-amide hydrochloride] |
| – | 0.407 | – | Cc1cc(F)ccc1[C@H]1CN(CCN)CCN1C(=O)N(C)Cc1cc(C(F)(F)F)cc(C(F)(F)F)c1 [Example 22, 4(2-Aminoethyl)-2-(S)-(4-fluoro-2-methyl-phenyl)-piperazine-1-carboxylic acid (3,5-bis-trifluoromethyl-benzyl)-methyl-amide dihydrochloride Salt] |
| – | 0.479 | – | Cc1cc(F)ccc1C1C(C)NCCN1C(=O)N(C)Cc1cc(C(F)(F)F)cc(C(F)(F)F)c1 (stereo not drawn) [Example 23, 2-(4-Fluoro-2-methyl-phenyl)-3-methyl-piperazine-1-carboxylic acid (3,5-bis-trifluoromethyl-benzyl)-methyl-amide hydrochloride salt] |
| > 200 | 0.661 | – | Cc1cc(F)ccc1C1CNCC(C)N1C(=O)N(C)Cc1cc(C(F)(F)F)cc(C(F)(F)F)c1.Cl (stereo not drawn) [Example 24, 2-(2-Methyl-4-fluoro-phenyl)-6-methyl-piperazine-1-carboxylic acid (3,5-bis-trifluoromethyl-benzyl)-methyl-amide hydrochloride salt] |
